According to US20260014184A1, “ADENOSINE DERIVATIVES FOR USE IN THE TREATMENT OF NEURODEGENERATIVE DISORDERS AND CANCER” (UNIVERSITY COLLEGE CARDIFF CONSULTANTS LIMITED, priority 2022, published 2026):

Legend:
[1] = tested on: PINK1 KO MEFs; test: MitoQC mitophagy assay, PINK1 knock-out MEF; type: cell-based; details: 5 μM, 24 h
Source text: (§1) With the inhibition of ubiquitin phosphorylation and parkin localisation to the mitochondria by kinetin riboside and the nucleoside analogue 9c, we next asked whether these compounds still induce mitophagy in a PINK1 dependent manner. To explore this, we employed the established MitoQC assay for measuring mitophagy in cells^11,12.

[2] = tested on: Ub Ser65 phosphorylation; test: Phospho-Ub (Ub Ser65) immunoblotting in parkin- or YFP-parkin-transfected HeLa cells; type: cell-based; details: for inhibition of PINK1-mediated ubiquitin phosphorylation (summary statement): in cells and astrocytes, induced by mitochondrial depolarizing agents CCCP and niclosamide
Method: Both HeLa and parkin-overexpressed HeLa cells were maintained in DMEM high glucose (Gibco), 10% FBS (Sigma-Aldrich) at 37° C. with 5% CO2. For experiments, cells were counted and seeded into a range of culture plates, depending on the experiment, cell counting was done using the Cellometer Auto T4 with TrypanBlue (Gibco). […] Alternatively, HeLa cells were seeded in well plates and then transfected with […] of parkin cDNA using the PEI method once the plated cells reached 60% confluency. After 6 hours, the media was changed. Sub-culturing was done when the cells reached ˜90% confluency.
Cell culture with 70-80% confluency was lysed as follows: cells were washed with Phosphate Buffer Saline (PBS) (Sigma). 150 μl of lysis buffer was used on each well containing either: • 50 mM Tris-HCl pH 7.5, 1 mM EDTA, 1 mM EGTA, 0.27 M sucrose, 1 mM Na3VO4, 50 mM NaF, 5 mM Na pyrophosphate and fresh 1 mM benzamidine, 1% NP-40 and […]; or • 50 mM Tris-HCl pH 7.5, 1 mM EDTA, 1 mM EGTA, 10 mM Na β-glycerophosphate, 0.27 M sucrose, 1 mM Na3VO4, 50 mM NaF, 10 mM Na pyrophosphate with fresh 1 mM benzamidine, 1% Triton X-100, complete EDTA-free Protease Inhibitor, Phosphatase inhibitor cocktail 3 and 100 μM of 2-chloroacetamide.
The cells were scrapped and transferred to the microtube and eventually spun down at 12,000 rpm for 15 minutes at 4° C. Finally, the supernatant was transferred to the new microtubes and stored at −20° C. Protein concentration was measured using Bradford Assay. Serial concentrations 0.125; 0.25; 0.5 and 1 mg/ml of Bovine Serum Albumin (BSA) (Sigma Aldrich) were used as a standard. Samples were boiled at 90° C. for 5 minutes in SDS sample loading buffer.
The next day membranes were washed in TBST and incubated with horse radish peroxidase (HRP)-conjugated antibodies for 1 h at room temperature with agitation. Following TBST washes, proteins were visualised using Amersham™ ECL™ Prime kit (GE Biosciences) and imaged using the Bio-rad ChemicDoc. Primary antibodies used for western blotting; GAPDH (Abcam cat #ab9485), Phospho-Ub Ser 65 (Sigma-Aldrich cat #ABS1513-1), LC3B (Cell Signaling cat #3868S). Secondary antibodies used for western blotting; anti-rabbit HRP (Agilent Dako cat #P0399), anti-mouse HRP (Agilent Dako cat #P0260).
To explore this, we first treated parkin-transfected HeLa cells for 24 h with 50 μM kinetin, kinetin riboside or kinetin riboside ProTide, a monophosphate prodrug of kinetin riboside.

[3] = target: T1, TcPINK1 (Tribolium castaneum, UniProt D6WMX4); test: PINK1 in vitro kinase assay with parkin or ubiquitin as substrates; type: biochemical; details: increasing concentrations, max 100 μM; human parkin or ubiquitin as substrates
T1 construct: purchased MRC PPU Reagents and Services (University of Dundee, U.K.)
T1 sequence (D6WMX4 6-570): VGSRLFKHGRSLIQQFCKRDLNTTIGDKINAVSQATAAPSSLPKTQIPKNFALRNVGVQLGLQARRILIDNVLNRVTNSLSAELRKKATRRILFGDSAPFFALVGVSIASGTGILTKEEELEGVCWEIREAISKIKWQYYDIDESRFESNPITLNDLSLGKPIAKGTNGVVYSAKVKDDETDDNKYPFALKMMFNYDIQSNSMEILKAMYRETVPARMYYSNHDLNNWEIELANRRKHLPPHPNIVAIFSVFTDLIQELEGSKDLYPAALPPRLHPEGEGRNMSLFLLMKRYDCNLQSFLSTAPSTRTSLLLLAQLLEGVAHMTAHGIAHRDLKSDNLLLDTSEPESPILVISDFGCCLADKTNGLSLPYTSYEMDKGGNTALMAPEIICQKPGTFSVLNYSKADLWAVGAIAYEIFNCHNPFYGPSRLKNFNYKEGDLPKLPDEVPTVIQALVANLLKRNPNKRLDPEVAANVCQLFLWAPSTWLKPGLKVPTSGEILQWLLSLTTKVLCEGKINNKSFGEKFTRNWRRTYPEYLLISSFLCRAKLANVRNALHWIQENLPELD
Method: This assay was carried out by the MRC PPU Reagents and Services (University of Dundee, U.K.). The assay was conducted as follows: TcPINK1 (5-20mU diluted in 50 mM Tris pH 7.5, 0.1 mM EGTA, 1 mg/ml BSA, 0.1% mercaptoethanol) is assayed against GST PARK2 TV3 or Ubiquitin-His in a final volume of […] containing 50 mM Tris pH 7.5, 0.1 mM EDTA, 10 mM DTT, protein substrate (0.3 mg/ml of GST PARK2 TV3 or 1 mg/ml of Ubiquitin-His, 10 mM magnesium acetate and 0.1 mM [33P-γ-ATP](50-1000 cpm/pmole) in the presence of the relevant small molecule (serial dilution with the highest concentration being 100 μM) and incubated for 30 min at room temperature. Assays are stopped by addition of 5 μl of 0.5 M (3%) orthophosphoric acid and then harvested onto P81 Unifilter plates with a wash buffer of 50 mM orthophosphoric acid.
To examine this further, we ran in vitro kinase assays employing recombinant and constitutively active Tribolium castaneum PINK1 (TcPINK1) and either human parkin or ubiquitin as substrates in the presence of increasing concentrations (max 100 μM) of kinetin riboside, benzyladenosine 9c or its triphosphate derivative (FIG. 6). […]

[4] = tested on: immortalised MEF expressing PINK1 wild-type (WT); test: MitoQC mitophagy assay, MEF expressing PINK1 wild-type; type: cell-based; details: 5 μM, 24 h
Source text: as §1

OC[C@H]1O[C@@H](n2cnc3c(NCc4ccccc4)ncnc32)[C@H](O)[C@@H]1O [9c, (2R,3R,4S,5R)-2-(6-(benzylamino)-9H-purin-9-yl)-5-(hydroxymethyl)tetrahydrofuran-3,4-diol]
mitophagy in PINK1 KO MEFs [1]: not observed
inhibition of PINK1-mediated ubiquitin phosphorylation (summary statement) [2]: inhibit ubiquitin phosphorylation
effect on TcPINK1 kinase activity (covalent inhibition) [3]: unlikely to be PINK1 covalent inhibitors
level and PINK1 dependence of mitophagy (WT versus KO MEFs) [4]: low level of mitophagy in a PINK1-dependent manner
mitophagy in PINK1 WT MEFs [4]: induced mitophagy

OC[C@H]1O[C@@H](n2cnc3c(NCc4ccco4)ncnc32)[C@H](O)[C@@H]1O [kinetin riboside, N^6-(2-furanylmethyl) adenosine]
mitophagy in PINK1 KO MEFs [1]: not observed
inhibition of CCCP-induced phosphorylation of ubiquitin by pre-treatment ([2]; YFP-parkin HeLa cells, 50 μM 24 h, then 10 μM CCCP 1 h, immunoblot): inhibited
inhibition of niclosamide-induced phosphorylation of ubiquitin by pre-treatment ([2]; YFP-parkin HeLa cells, 50 μM 24 h, then 10 μM niclosamide 1 h, immunoblot): inhibited
inhibition of PINK1-mediated ubiquitin phosphorylation (summary statement) [2]: inhibit ubiquitin phosphorylation
inhibition of CCCP-induced phosphorylation of ubiquitin by pre-treatment ([2]; parkin-transfected HeLa cells, 50 μM 24 h, then 10 μM CCCP 3 h, immunoblot): inhibited the CCCP-induced phosphorylation of ubiquitin
phosphorylation of ubiquitin (Ub Ser65), compound alone ([2]; parkin-transfected HeLa cells, 50 μM, 24 h, no CCCP, immunoblot): did not lead to any notable phosphorylation of ubiquitin
effect on TcPINK1 kinase activity (covalent inhibition) [3]: unlikely to be PINK1 covalent inhibitors
level and PINK1 dependence of mitophagy (WT versus KO MEFs) [4]: low level of mitophagy in a PINK1-dependent manner
mitophagy in PINK1 WT MEFs [4]: induced mitophagy
